pIC50: −log10 of the molar value.
Tests used:
[1] = biological target: Acetylcholinesterase (Electrophorus electricus) (UniProt O42275); assay: Inhibition of Electrophorus electricus AChE at 50 uM using acetylthiocholine iodide as substrate measured after 10 mins by Ellman's method relative to control
Acetylcholinesterase = Acetylcholinesterase (Electrophorus electricus, UniProt O42275); assay: Inhibition of Electrophorus electricus AChE using acetylthiocholine iodide as substrate measured during 6 mins by Ellman's method
Sequence of Acetylcholinesterase (O42275 whole entry): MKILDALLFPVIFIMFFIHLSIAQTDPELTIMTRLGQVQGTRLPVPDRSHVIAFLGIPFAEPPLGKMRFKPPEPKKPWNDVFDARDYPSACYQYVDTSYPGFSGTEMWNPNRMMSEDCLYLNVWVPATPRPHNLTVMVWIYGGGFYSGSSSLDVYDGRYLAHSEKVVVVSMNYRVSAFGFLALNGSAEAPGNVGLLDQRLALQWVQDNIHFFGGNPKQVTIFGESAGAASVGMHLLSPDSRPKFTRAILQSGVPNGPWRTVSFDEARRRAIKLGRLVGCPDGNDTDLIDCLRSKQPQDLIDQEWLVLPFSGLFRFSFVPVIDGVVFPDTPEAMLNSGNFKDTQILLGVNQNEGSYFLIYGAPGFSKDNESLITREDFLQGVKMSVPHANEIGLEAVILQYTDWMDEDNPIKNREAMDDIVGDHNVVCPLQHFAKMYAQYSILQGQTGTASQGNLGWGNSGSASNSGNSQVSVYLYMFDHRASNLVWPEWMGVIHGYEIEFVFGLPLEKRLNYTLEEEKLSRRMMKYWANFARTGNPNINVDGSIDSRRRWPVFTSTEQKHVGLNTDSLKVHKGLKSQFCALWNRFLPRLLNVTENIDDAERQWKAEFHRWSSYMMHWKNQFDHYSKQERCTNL

Sequence of Acetylcholinesterase (Electrophorus electricus) (O42275 24-633 limits assumed): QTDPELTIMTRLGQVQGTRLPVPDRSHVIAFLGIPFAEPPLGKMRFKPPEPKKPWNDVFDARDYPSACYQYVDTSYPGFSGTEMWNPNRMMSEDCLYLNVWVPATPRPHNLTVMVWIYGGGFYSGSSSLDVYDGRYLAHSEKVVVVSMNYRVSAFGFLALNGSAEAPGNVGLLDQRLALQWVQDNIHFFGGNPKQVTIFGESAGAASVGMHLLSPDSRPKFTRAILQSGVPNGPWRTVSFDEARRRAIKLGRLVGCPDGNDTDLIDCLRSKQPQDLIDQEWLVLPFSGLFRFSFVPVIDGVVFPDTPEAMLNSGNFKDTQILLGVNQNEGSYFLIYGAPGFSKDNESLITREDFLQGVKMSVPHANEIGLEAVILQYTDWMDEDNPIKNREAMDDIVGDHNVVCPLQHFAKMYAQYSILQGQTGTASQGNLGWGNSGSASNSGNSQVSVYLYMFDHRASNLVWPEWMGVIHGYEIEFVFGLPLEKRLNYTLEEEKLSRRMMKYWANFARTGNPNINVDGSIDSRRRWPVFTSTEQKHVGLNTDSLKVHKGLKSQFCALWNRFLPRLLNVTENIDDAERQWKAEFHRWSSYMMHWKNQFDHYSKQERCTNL

SMILES	inhibition [1] [%]	pIC50 (Acetylcholinesterase)
CN1CCC2(O)c3ccccc3NC12 (centres undefined)	53.7	–
C=C[C@H]1CO[C@@H]2C[C@H]1C(=O)c1c3[nH]c4ccccc4c3cc[n+]12	–	5.47
CNCCc1c[nH]c2ccccc12	49.8	–
C=C[C@H]1CO[C@@H]2C[C@H]1Cc1c3[nH]c4ccccc4c3cc[n+]12	–	5.00

Reference: ChEMBL document CHEMBL4130547, “Targeted Isolation of Monoterpene Indole Alkaloids from Palicourea sessilis” (J Nat Prod, 2017)
